The values below come from US12539292B2, “BRM targeting compounds and associated methods of use” (Arvinas Operations, Inc., priority 2018, dated 2026).

Each structure is given as a SMILES string. Read-outs that look alike come from different tables or passages of the source.

In the test the target is T1, BRM (Homo sapiens, UniProt P51531).
T1 construct: In-Cell Western Screen of BRM Degradation in SW1573 Cells; endogenous in cells; host or cells: SW1573
Kind of test: In-cell Western screen of BRM degradation in SW1573 cells (Dmax and DC50). Type of test: cell-based. Put shortly: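 BRM levels were read by LI-COR in-cell Western after two-channel (800/680 nm) immunostaining of fixed, Triton-permeabilised SW1573 cells.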

The mark [1] stands for this setting: BRM degradation, SW1573 cells, read-out: DC50.
Where [2] appears, read: target protein degradation, read-out: BRM DC50.
Setting [3] is: BRM degradation, SW1573 cells, Table 2D, read-out: *DC50.

As a reminder, the DC50 is the midpoint of the concentration-degradation curve. A word on the Dmax: it is the greatest extent of degradation seen.

T1 sequence (P51531 whole entry): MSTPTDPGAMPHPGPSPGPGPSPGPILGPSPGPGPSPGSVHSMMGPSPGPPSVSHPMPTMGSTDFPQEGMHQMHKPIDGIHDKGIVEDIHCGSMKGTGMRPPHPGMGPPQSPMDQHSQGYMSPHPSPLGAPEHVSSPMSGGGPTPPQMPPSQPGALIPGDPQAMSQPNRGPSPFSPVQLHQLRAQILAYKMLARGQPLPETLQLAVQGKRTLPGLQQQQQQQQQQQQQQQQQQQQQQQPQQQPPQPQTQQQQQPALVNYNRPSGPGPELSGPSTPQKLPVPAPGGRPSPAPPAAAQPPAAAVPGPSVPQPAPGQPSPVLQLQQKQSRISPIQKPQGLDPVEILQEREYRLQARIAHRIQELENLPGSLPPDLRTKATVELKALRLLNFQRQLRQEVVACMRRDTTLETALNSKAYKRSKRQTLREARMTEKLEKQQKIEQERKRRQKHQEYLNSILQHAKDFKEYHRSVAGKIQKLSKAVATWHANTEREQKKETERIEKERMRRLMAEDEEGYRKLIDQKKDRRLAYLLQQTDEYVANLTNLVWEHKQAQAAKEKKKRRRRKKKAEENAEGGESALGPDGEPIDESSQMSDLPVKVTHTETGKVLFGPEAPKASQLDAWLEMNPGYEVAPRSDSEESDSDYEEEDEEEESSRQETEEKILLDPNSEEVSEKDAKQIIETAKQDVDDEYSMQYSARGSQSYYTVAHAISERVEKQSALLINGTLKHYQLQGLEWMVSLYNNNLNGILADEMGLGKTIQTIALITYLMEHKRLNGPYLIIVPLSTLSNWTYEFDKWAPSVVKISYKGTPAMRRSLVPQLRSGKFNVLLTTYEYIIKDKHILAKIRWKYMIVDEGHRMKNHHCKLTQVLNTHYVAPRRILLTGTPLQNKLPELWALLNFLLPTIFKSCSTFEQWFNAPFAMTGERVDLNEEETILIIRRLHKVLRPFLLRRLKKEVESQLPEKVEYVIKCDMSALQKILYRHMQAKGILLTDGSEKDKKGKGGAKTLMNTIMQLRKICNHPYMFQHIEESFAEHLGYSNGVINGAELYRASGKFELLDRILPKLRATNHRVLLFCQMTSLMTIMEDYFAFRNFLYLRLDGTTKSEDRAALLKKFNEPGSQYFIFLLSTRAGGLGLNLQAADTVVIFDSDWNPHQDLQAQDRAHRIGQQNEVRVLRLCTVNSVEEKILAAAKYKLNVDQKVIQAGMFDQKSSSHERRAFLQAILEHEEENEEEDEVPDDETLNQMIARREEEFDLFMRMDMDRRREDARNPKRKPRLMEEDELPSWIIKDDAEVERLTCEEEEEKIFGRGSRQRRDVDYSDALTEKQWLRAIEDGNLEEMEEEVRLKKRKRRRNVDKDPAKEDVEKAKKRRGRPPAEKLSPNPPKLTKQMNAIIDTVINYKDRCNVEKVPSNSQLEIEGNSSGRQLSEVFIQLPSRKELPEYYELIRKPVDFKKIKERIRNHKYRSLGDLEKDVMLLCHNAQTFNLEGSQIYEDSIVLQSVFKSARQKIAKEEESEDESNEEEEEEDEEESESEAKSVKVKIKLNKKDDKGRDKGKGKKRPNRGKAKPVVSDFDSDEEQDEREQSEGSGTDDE

For `Cc1ncsc1-c1ccc([C@H](C)NC(=O)[C@@H]2C[C@@H](O)CN2C(=O)[C@@H](c2cc(OCCN3CCC(O[C@H]4C[C@H](OCCn5cc(-c6cc(-c7ccccc7O)nnc6N)cn5)C4)CC3)no2)C(C)C)cc1` [compound 189, (2S,4R)-1-((R)-2-(3-(2-(4-((1r,3R)-3-(2-(4-(3-amino-6-(2-hydroxyphenyl)pyridazin-4-yl)-1H-pyrazol-1-yl)ethoxy)cyclobutoxy)piperidin-1-yl)ethoxy)isoxazol-5-yl)-3-methylbutanoyl)-4-hydroxy-N-((S)-1-(4-(4-methylthiazol-5-yl)phenyl)ethyl)pyrrolidine-2-carboxamide], the DC50 under setting [1] is less than 2.5 nM. In addition, the Dmax (BRM degradation, SW1573 cells, tested at the top concentration of between 0.3 and 10 μM, read-out: Dmax (%) (% degraded)) was greater than 75%. Regarding `Cc1cc([C@@H](C(=O)N2C[C@H](O)C[C@H]2C(=O)N[C@@H](C)c2ccc(-c3scnc3C)cc2)[C@@H](C)CO[C@H]2C[C@@H](Oc3cc(N4C5CCC4CN(c4cc(-c6ccccc6O)nnc4N)C5)ccn3)C2)on1` [compound 481, (2S,4R)-1-((2S,3R)-4-((1s,3S)-3-((4-(3-(3-amino-6-(2-hydroxyphenyl)pyridazin-4-yl)-3,8-diazabicyclo[3.2.1]octan-8-yl)pyridin-2-yl)oxy)cyclobutoxy)-3-methyl-2-(3-methylisoxazol-5-yl)butanoyl)-4-hydroxy-N-((S)-1-(4-(4-methylthiazol-5-yl)phenyl)ethyl)pyrrolidine-2-carboxamide], for the setting “SW1573, % degraded, when tested at the top concentration of between 0.3 and 10 μM, read-out: BRM Dmax (%)”, the maximal degradation (Dmax) was greater than 75%. Also, under setting [2], the half-maximal degradation concentration (DC50) was less than 2.5 nM. As for `Cc1cc([C@@H](C(=O)N2C[C@H](O)C[C@H]2C(=O)N[C@@H](C)c2ccc(-c3scnc3C)cc2)[C@H](C)COCCCn2cc(-c3cc(-c4ccccc4O)nnc3N)cn2)on1` [compound 559, (2S,4R)-1-((2S,3S)-4-(3-(4-(3-amino-6-(2-hydroxyphenyl)pyridazin-4-yl)-1H-pyrazol-1-yl)propoxy)-3-methyl-2-(3-methylisoxazol-5-yl)butanoyl)-4-hydroxy-N-((S)-1-(4-(4-methylthiazol-5-yl)phenyl)ethyl)pyrrolidine-2-carboxamide], the DC50 under setting [3] was greater than 30 nM.

On to `Cc1ncsc1-c1ccc([C@H](C)NC(=O)[C@@H]2C[C@@H](O)CN2C(=O)[C@H](c2cc(OCC[C@@H]3CCN(C[C@H]4C[C@H](Oc5cc(N6C7CCC6CN(c6cc(-c8ccccc8O)nnc6N)C7)ccn5)C4)C[C@@H]3C)no2)C(C)C)cc1` (racemic) [compound 543, (2S,4R)-1-((2S)-2-(3-(2-((3R,4S)-1-(((1r,3R)-3-((4-(3-(3-amino-6-(2-hydroxyphenyl)pyridazin-4-yl)-3,8-diazabicyclo[3.2.1]octan-8-yl)pyridin-2-yl)oxy)cyclobutyl)methyl)-3-methylpiperidin-4-yl)ethoxy)isoxazol-5-yl)-3-methylbutanoyl)-4-hydroxy-N-((S)-1-(4-(4-methylthiazol-5-yl)phenyl)ethyl)pyrrolidine-2-carboxamide], for which the DC50 under setting [3] was greater than 30 nM. For `Cc1ncsc1-c1ccc([C@H](C)NC(=O)[C@@H]2C[C@@H](O)CN2C(=O)[C@H](c2cc(OCC(F)(F)CN3CCC(O[C@H]4C[C@H](Oc5cc(N6C7CCC6CN(c6cc(-c8ccccc8O)nnc6N)C7)ccn5)C4)CC3)no2)C(C)C)cc1` [compound 483, (2S,4R)-1-((2S)-2-(3-(3-(4-((1r,3S)-3-((4-(3-(3-amino-6-(2-hydroxyphenyl)pyridazin-4-yl)-3,8-diazabicyclo[3.2.1]octan-8-yl)pyridin-2-yl)oxy)cyclobutoxy)piperidin-1-yl)-2,2-difluoropropoxy)isoxazol-5-yl)-3-methylbutanoyl)-4-hydroxy-N-((S)-1-(4-(4-methylthiazol-5-yl)phenyl)ethyl)pyrrolidine-2-carboxamide], the DC50 under setting [2] was greater than 30 nM. With `COc1nc(-c2scnc2C)c(F)cc1[C@H](C)NC(=O)[C@@H]1C[C@@H](O)CN1C(=O)[C@H](c1cc(OCCN2CCC(O[C@H]3C[C@H](Oc4cc(N5C6CCC5CN(c5cc(-c7ccccc7O)nnc5N)C6)ccn4)C3)CC2)no1)C(C)C` [compound 561, (2S,4R)-1-((2S)-2-(3-(2-(4-((1r,3S)-3-((4-(3-(3-amino-6-(2-hydroxyphenyl)pyridazin-4-yl)-3,8-diazabicyclo[3.2.1]octan-8-yl)pyridin-2-yl)oxy)cyclobutoxy)piperidin-1-yl)ethoxy)isoxazol-5-yl)-3-methylbutanoyl)-N-((S)-1-(5-fluoro-2-methoxy-6-(4-methylthiazol-5-yl)pyridin-3-yl)ethyl)-4-hydroxypyrrolidine-2-carboxamide], under setting [3], the DC50 is greater than 30 nM. On to `Cc1ncsc1-c1ccc(CNC(=O)[C@H]2C[C@H](O)CN2C(=O)C(c2cc(OCCN3CCN(CCOc4cc(N5C6CCC5CN(c5cc(-c7ccccc7O)nnc5N)C6)ccn4)CC3)no2)C(C)C)cc1` (stereo partly drawn) [compound 57, (2R,4S)-1-(2-(3-(2-(4-(2-((4-(3-(3-amino-6-(2-hydroxyphenyl)pyridazin-4-yl)-3,8-diazabicyclo[3.2.1]octan-8-yl)pyridin-2-yl)oxy)ethyl)piperazin-1-yl)ethoxy)isoxazol-5-yl)-3-methylbutanoyl)-4-hydroxy-N-(4-(4-methylthiazol-5-yl)benzyl)pyrrolidine-2-carboxamide], for which, where the note is “BRM degradation, SW1573 cells, when tested at the top concentration of between 0.3 and 10 μM, read-out: Dmax (%) (% degraded)”, the Dmax is less than 50%. For `Cc1ncsc1-c1ccc(CNC(=O)[C@@H]2C[C@@H](O)CN2C(=O)C(c2cc(OCC=Cc3ccc(OC4CC(Oc5cc(N6C7CC[C@@H]6CN(c6cc(-c8ccccc8O)nnc6N)C7)ccn5)C4)cn3)no2)C(C)C)cc1` (stereo partly drawn) [compound 56, (2S,4R)-1-(2-(3-((3-(5-((1r,3r)-3-((4-(3-(3-amino-6-(2-hydroxyphenyl)pyridazin-4-yl)-3,8-diazabicyclo[3.2.1]octan-8-yl)pyridin-2-yl)oxy)cyclobutoxy)pyridin-2-yl)allyl)oxy)isoxazol-5-yl)-3-methylbutanoyl)-4-hydroxy-N-(4-(4-methylthiazol-5-yl)benzyl)pyrrolidine-2-carboxamide], the half-maximal degradation concentration (DC50) under setting [1] is less than 2.5 nM. In addition, for the setting “BRM degradation, SW1573 cells, when tested at the top concentration of between 0.3 and 10 μM”, the “Dmax (%) (% degraded)” value is “A (A > 75)”.

Regarding `Cc1ncsc1-c1ccc([C@H](C)NC(=O)[C@@H]2C[C@@H](O)CN2C(=O)[C@@H](c2cc(OCC[C@H]3CCN(C[C@H]4C[C@H](Oc5cc(N6C7CCC6CN(c6cc(-c8ccccc8O)nnc6N)C7)ccn5)C4)[C@@H](C)C3)no2)C(C)C)cc1` [compound 548, (2S,4R)-1-((2R)-2-(3-(2-((2S,4S)-1-(((1r,3S)-3-((4-(3-(3-amino-6-(2-hydroxyphenyl)pyridazin-4-yl)-3,8-diazabicyclo[3.2.1]octan-8-yl)pyridin-2-yl)oxy)cyclobutyl)methyl)-2-methylpiperidin-4-yl)ethoxy)isoxazol-5-yl)-3-methylbutanoyl)-4-hydroxy-N-((S)-1-(4-(4-methylthiazol-5-yl)phenyl)ethyl)pyrrolidine-2-carboxamide], for the setting “BRM degradation, SW1573 cells, Table 2D, read-out: **Dmax (%) (% degraded)”, the Dmax was greater than 75%. Moreover, the DC50 under setting [3] is less than 2.5 nM.

Regarding `Cc1ncsc1-c1ccc([C@H](C)NC(=O)[C@@H]2C[C@@H](O)CN2C(=O)[C@@H](c2cc(N3CCN(C(C)[C@H]4C[C@H](Oc5cc(N6C7CCC6CN(c6cc(-c8ccccc8O)nnc6N)C7)ccn5)C4)CC3)no2)C(C)C)cc1` (stereo partly drawn) [compound 704, (2S,4R)-1-((2R)-2-(3-(4-((1S)-1-((1r,3S)-3-((4-(3-(3-amino-6-(2-hydroxyphenyl)pyridazin-4-yl)-3,8-diazabicyclo[3.2.1]octan-8-yl)pyridin-2-yl)oxy)cyclobutyl)ethyl)piperazin-1-yl)isoxazol-5-yl)-3-methylbutanoyl)-4-hydroxy-N-((S)-1-(4-(4-methylthiazol-5-yl)phenyl)ethyl)pyrrolidine-2-carboxamide], the DC50 under setting [1] is less than 2.5 nM. In addition, the Dmax (BRM degradation, SW1573 cells, read-out: Dmax (% degraded)) was greater than 75%.
